This series is described as follows: physchem. Type of series: physicochemical. The following applies: water.

Converted amounts (≈) assume the structure as drawn.

From patent US20120231972A1, “Probe Compound for Detecting and Isolating Enzymes and Means and Methods Using the Same” (priority 2009, published 2012) come the findings set out here.

By solubility is commonly meant the concentration that dissolves in the medium under given conditions. Read a high solubility as much dissolved substance.

As to `CC[N+]1=C(/C=C/C=C2/N(CCCCCC(=O)N[C@H](Cc3c[nH]cn3)C(=O)O)c3ccc(S(=O)(=O)[O-])cc3C2(C)C)C(C)(C)c2cc(S(=O)(=O)NCCCC(=O)OCCN(C)C)ccc21` [compound (E), Cy3-His-4-amino-3-butyric acid (N,N-dimethylamino) ethylester], the solubility was about 240 mM (≈ 222 mg/mL).
